Measured values reported in patent US20110318281A1, “Lactobacillus Salivarius SG-M6 for Improving Oral Bacterial Groups and Health Care Compositions Thereof” (SYNGEN BIOTECH CO., LTD., priority 2010, published 2011).

What was measured:
[1] = test system: Actinomyces viscosus (ATCC 15987); experiment: Disc agar diffusion test; assay type: cell-based; details: 6 mm paper disc, 37, 24 hours, mean±S.D. (n=3)
Description: (§1) Lactobacillus salivarius SG-M6 were cultured in liquid medium. MRS medium was used in this embodiment. The bacteria were cultured at 30-37 for 15-24 hours. The fermentation broth was concentrated into 30-fold of original concentration, dialyzed by Spectra/Por®Dialysis Membrane (MWCO:3500, Spectrum Laboratories Inc, CA) for 48 hours, and diluted into various concentrations according to experimental requirements. […] Above four pathogens strains were purchased from Bioresource Collection and Research Center of Food Industry Research and Development Institute in Taiwan or ATCC. […] The diameter of sterile paper disc was 6 mm. The positive bacterial inhibition effect was determined by bacterial inhibition zone over 6 mm in diameter. Otherwise, it was defined as negative bacterial inhibition effect. Cultural condition was under the temperature of 37 for 24 hours. […] The inhibition zone values were shown as mean±S.D. (n=3).

[2] = test system: Porphyromonas gingivalis (ATCC 33277); experiment: Disc agar diffusion test; assay type: cell-based; details: 6 mm paper disc, 37, 24 hours, mean±S.D. (n=3)
Description: as §1

[3] = test system: Streptococcus mutans (ATCC 25175); experiment: Disc agar diffusion test; assay type: cell-based; details: 6 mm paper disc, 37, 24 hours, mean±S.D. (n=3)
Description: as §1

[4] = test system: Streptococcus sanguis (ATCC 49295); experiment: Disc agar diffusion test; assay type: cell-based; details: 6 mm paper disc, 37, 24 hours, mean±S.D. (n=3)
Description: as §1

[5] = test system: artificially induced periodontal disease (ligature wire, Streptococcus mutans); experiment: Evaluation of preventive effect for animal periodontal disease; assay type: in vivo, Balb/c mice; details: prevention groups; for periodontal pocket improvement percentage (percentage of improving individual): Mann-Whitney test vs pMT
Description: (§2) This trial included treatment groups and control groups. The treatment groups of Lactobacillus salivarius SG-M6 were divided into 6 groups as follows: 6 groups of dialyzed fermentation product concentrate of Lactobacillus salivarius SG-M6 included 15-fold, 10-fold, 5-fold, 4-fold, 2-fold, and 1-fold (unconcentrated fermentation broth). Two control groups included the treatment of 0.267 mg/mL of tetracycline and distilled water.
Twelve of 8-week-old female Balb/c mice were selected for each group (Table 2). The mice were administered with various concentrations of Lactobacillus salivarius SG-M6 fermentation product, 1 mL of 0.267 mg/mL tetracyccline or distilled water. […] Their pathological symptoms observed and recorded until sacrificing all animals. Until the control group (feeding with distilled water, mock-treated group) showing gum swelling and dental plaque appearance diagnosed by chief dentists, the ligature wire was removed and inoculation of dental pathogen was stopped. At day 4, 8, 12, and 16 after wire removal, mice periodontal pocket depth was examined, 3 mice from each group were killed for blood sampling, and samples were collected for histological analysis.
(§3) Control group was used as a standard to examine individuals in each group by Mann-Whitney test. Subjects with significant difference were defined as improving individuals. (number of improving Subject/number of total subject in group)×100%=improvement percentage of periodontal pocket depth.
(§4) Experimental data were shown as mean±S.D. The statistical variation of treatment group and control group of mice periodontal pocket were performed by One-Way ANOVA and Dunnett multiple post hoc comparison in longitudinal study, and by One-Way ANOVA and LSD multiple post hoc comparison in cross-sectional study. Besides, Mann-Whitney test was used for examining the number of periodontal pocket improving individuals. The p value of statistical significance level was 0.05.

[6] = test system: artificially induced periodontal disease (ligature wire, Streptococcus mutans); experiment: Evaluation of therapeutic effect for animal periodontal disease; assay type: in vivo, Balb/c mice; details: treatment groups; for periodontal pocket improvement percentage (percentage of improving individual): Mann-Whitney test vs tMT
Description: as §2
Twelve of 8-week-old female Balb/c mice were selected for each group (Table 3). […] After diagnosis of diseased tissue by chief dentists, they were administered with different concentrations of Lactobacillus salivarius SG-M6 fermentation product, live Lactobacillus salivarius SG-M6, 1 mL of 0.267 mg/mL tetracycline or distilled water every day. The pathological symptoms were recorded. Wire was removed at the beginning of the treatment and periodontal pathogen inoculation was terminated. At day 4, 8, 12, and 16 after wire removal, mice periodontal pocket depth was examined. 3 mice from each group were killed for blood sampling and samples were collected for histological analysis.
as §3, §4

Q: With CN(C)[C@@H]1C(O)=C(C(N)=O)C(=O)[C@@]2(O)C(O)=C3C(=O)c4c(O)cccc4[C@@](C)(O)[C@H]3C[C@@H]12 [Tetracycline, tetracycline] as the molecule, how does the inhibition zone [1] read?
A: 48.2 ± 2.4^ mm

Q: And the inhibition zone [2]?
A: 33.4 ± 2.2^ mm

Q: What about the inhibition zone [3] of the same molecule?
A: 29.7 ± 2.0^ mm

Q: What about the inhibition zone [4] of the same molecule?
A: 25.9 ± 1.2^ mm

Q: And the “periodontal pocket improvement percentage (percentage of improving individual)” value ([5]; Day 4)?
A: 62%

Q: And the periodontal pocket depth ([5]; Day 4, Table 11, comparison with day 4)?
A: 0.84 ± 0.50 mm

Q: What about the periodontal pocket depth ([5]; Day 4 after wire removal, compared with pMT) of the same molecule?
A: 0.84 ± 0.50 mm

Q: What about the “periodontal pocket improvement percentage (percentage of improving individual)” value ([5]; Day 8) of the same molecule?
A: 50%

Q: What about the periodontal pocket depth ([5]; Day 8, Table 11, comparison with day 4) of the same molecule?
A: 0.70 ± 0.34 mm

Q: And the periodontal pocket depth ([5]; Day 8, compared with pMT)?
A: 0.70 ± 0.34 mm

Q: And the “periodontal pocket improvement percentage (percentage of improving individual)” value ([5]; Day 12)?
A: 71%

Q: And the periodontal pocket depth ([5]; Day 12, Table 11, comparison with day 4)?
A: 0.65 ± 0.26 mm

Q: What about the periodontal pocket depth ([5]; Day 12, compared with pMT) of the same molecule?
A: 0.56 ± 0.26 mm

Q: What about the “periodontal pocket improvement percentage (percentage of improving individual)” value ([5]; Day 16) of the same molecule?
A: 100%

Q: And the periodontal pocket depth ([5]; Day 16, Table 11, comparison with day 4)?
A: 0.49 ± 0.25 mm

Q: And the periodontal pocket depth ([5]; Day 16, compared with pMT)?
A: 0.49 ± 0.25 mm

Q: And the “periodontal pocket improvement percentage (percentage of improving individual)” value ([6]; Day 4)?
A: 30%

Q: What about the periodontal pocket depth ([6]; Day 4, Table 13, comparison with day 4) of the same molecule?
A: 1.05 ± 0.64 mm

Q: What about the periodontal pocket depth ([6]; Day 4, compared with tMT) of the same molecule?
A: 1.05 ± 0.64 mm

Q: What about the “periodontal pocket improvement percentage (percentage of improving individual)” value ([6]; Day 8) of the same molecule?
A: 20%

Q: And the periodontal pocket depth ([6]; Day 8, Table 13, comparison with day 4)?
A: 0.89 ± 0.44 mm

Q: What about the periodontal pocket depth ([6]; Day 8, compared with tMT) of the same molecule?
A: 0.89 ± 0.44 mm

Q: What about the “periodontal pocket improvement percentage (percentage of improving individual)” value ([6]; Day 12) of the same molecule?
A: 47%

Q: What about the periodontal pocket depth ([6]; Day 12, Table 13, comparison with day 4) of the same molecule?
A: 0.63 ± 0.37 mm

Q: And the periodontal pocket depth ([6]; Day 12, compared with tMT)?
A: 0.63 ± 0.37 mm

Q: What about the “periodontal pocket improvement percentage (percentage of improving individual)” value ([6]; Day 16) of the same molecule?
A: 33%

Q: What about the periodontal pocket depth ([6]; Day 16, Table 13, comparison with day 4) of the same molecule?
A: 0.61 ± 0.34 mm

Q: And the periodontal pocket depth ([6]; Day 16, compared with tMT)?
A: 0.48 ± 0.33 mm
